Source: patent US8969325B2, “TRPV1 antagonists” (AbbVie Inc., priority 2011, dated 2015)

Tests used:
[1] = target: T1, human TRPV1 (Homo sapiens (Human), UniProt Q8NER1); test: Capsaicin Activation Assay (intracellular Ca2+, FLIPR); format: cell-based; settings: recombinant HEK293 cells expressing hTRPV1, 50 nM capsaicin
Protocol: (Logan, Utah). Dulbecco's phosphate-buffered saline (D-PBS) (with 1 mg/mL glucose and 3.6 mg/l Na pyruvate, without phenol red), L-glutamine, hygromycin B, and Lipofectamine® were obtained from Life Technologies (Grand Island, N.Y.). G418 sulfate was obtained from Calbiochem-Novabiochem Corp. (San Diego, Calif.). […] (St. Louis, Mo.). […] The cDNA for human TRPV1 (hTRPV1) was isolated by reverse transcriptase-polymerase chain reaction (RT-PCR) from human small intestine poly A+ RNA supplied by Clontech (Palo Alto, Calif.) using primers designed surrounding the initiation and termination codons identical to the published sequences (Hayes et al. […] The resulting cDNA PCR products were subcloned into pCIneo mammalian expression vector (Promega) and fully sequenced using fluorescent dye-terminator reagents (Prism, PerkinElmer Applied Biosystems Division) and a PerkinElmer Applied Biosystems Model 373 DNA sequencer or Model 310 genetic analyzer. Expression plasmids encoding the hTRPV1 cDNA were transfected into HEK293 cells using Lipofectamine®. Forty-eight hours after transfection, the neomycin-resistant cells were selected with growth medium containing 800 μg/mL Geneticin (Life Technologies, formerly Gibco BRL). Surviving individual colonies were isolated and screened for TRPV1 activity. […] Compound stocks, 10 mM, were prepared in DMSO, and diluted serially across a 384-well plate using a Bravo BenchCel workstation (Agilent Technologies, Santa Clara, Calif.). […] On the day prior to the experiment, the recombinant HEK293 cells expressing human TRPV1 (hTRPV1) were removed from tissue culture flasks and plated in growth medium into black-walled clear-bottom 384-well Biocoat™ poly-D-lysine assay plates (BD Biosciences, Bedford, Mass.) using a Multidrop® dispenser (ThermoScientific, Waltham, Mass.). […] Molecular Devices, Sunnyvale, Calif.) was added to each well using the Multidrop® dispenser. […] Fluorescence readings were made at 1 to 5 second intervals over the course of the experimental run.

[2] = target: T1, human TRPV1; test: Acid Activation Assay (pH 5.0, intracellular Ca2+, FLIPR); format: cell-based; settings: percentage of the maximal pH 5.0-induced response remaining; recombinant HEK293 hTRPV1 cells; maximum concentration tested 37.5 μM
Protocol: Dulbecco's modified Eagle's medium (DMEM) with 4.5 m g/mL D-glucose, fetal bovine serum, L-glutamine, and 2-morpholinoethanesulfonic acid (MES) were purchased from Sigma-Aldrich Co. (St. Louis, Mo.). Dulbecco's phosphate-buffered saline (DPBS) with Ca^2+, Mg^2+, and 1 mg/mL D-glucose (pH 7.4), Geneticin®, 0.25% trypsin-1 mM EDTA, and penicillin-streptomycin were purchased from Invitrogen Corp. (Carlsbad, Calif.). The FLIPR® Calcium 4 assay kit was purchased from Molecular Devices (Sunnyvale, Calif.).
The cDNA for human TRPV1 (hTRPV1) was isolated by reverse transcriptase-polymerase chain reaction (RT-PCR) from human small intestine poly A+ RNA supplied by Clontech (Palo Alto, Calif.) using primers designed surrounding the initiation and termination codons identical to the published sequences (Hayes et al. Pain 2000, 88, 205-215). The resulting cDNA PCR products were subcloned into pCIneo mammalian expression vector (Promega) and fully sequenced using fluorescent dye-terminator reagents (Prism, PerkinElmer Applied Biosystems Division) and a PerkinElmer Applied Biosystems Model 373 DNA sequencer or Model 310 genetic analyzer. Expression plasmids encoding the hTRPV1 cDNA were transfected into HEK293 cells using Lipofectamine®. Forty-eight hours after transfection, the neomycin-resistant cells were selected with growth medium containing 800 μg/mL Geneticin (Life Technologies, formerly Gibco BRL). Surviving individual colonies were isolated and screened for TRPV1 activity. Cells expressing recombinant TRPV1 were maintained at 37° C. in DMEM containing 4 mM L-glutamine, 300 μg/mL G418 (Calbiochem) and 10% fetal bovine serum under a humidified 5% CO2 atmosphere.
The functional activity of compounds at the TRPV1 receptor was determined by measurement of intracellular Ca^2+ levels ([Ca^2+]i) using the Fluorescence Imaging Plate Reader (FLIPR)TETRA®. All compounds were tested over a 12-point one-half-log concentration range with 37.5 μM being the maximum concentration tested. Compound stocks, 10 mM, were prepared in DMSO, and diluted serially across a 384-well plate using a Bravo BenchCel workstation (Agilent Technologies, Santa Clara, Calif.). On the day prior to the experiment, the recombinant HEK293 cells expressing human TRPV1 (hTRPV1) were removed from tissue culture flasks and plated in growth medium into black-walled clear-bottom 384-well Biocoat™ poly-D-lysine assay plates (BD Biosciences, Bedford, Mass.) using a Multidrop® dispenser (ThermoScientific, Waltham, Mass.). On the day of the experiment growth medium was removed, and the no-wash FLIPR® Calcium-4 dye (λEX=470-495 nm, λEM=515-575 nm) was added to each well using the Multidrop® dispenser. The plated cells were incubated for 90-120 min in the dark at 25° C. The test compounds dissolved in DMSO were then added to the plates using an Agilent Bravo workstation (Agilent Technologies Inc., Santa Clara, Calif.). Three minutes later, a pH 5.0 solution was added to each well. Reagents were delivered at a rate of 40 μL/sec, and the final assay volume was 80 μL. Acidic pH solutions were prepared by titration of DPBS/MES with 1 N HCl. The intensity of the fluorescence was captured and digitally transferred to an interfaced PC. The maximum peak measured for the concentration range tested was used to calculate the corresponding peak increase in fluorescence over baseline (relative fluorescence units) which was expressed as the percentage (max % remain) of the maximal pH 5.0-induced response.
Table 1 reports the percentage (max % remain) of the maximal pH 5.0-induced response measured for the compounds tested in the recombinant HEK293 cell assay. Most of the compounds tested inhibited calcium flux only partially following TRPV1 activation by the pH 5.0 solution.

T1 sequence (Q8NER1 whole entry): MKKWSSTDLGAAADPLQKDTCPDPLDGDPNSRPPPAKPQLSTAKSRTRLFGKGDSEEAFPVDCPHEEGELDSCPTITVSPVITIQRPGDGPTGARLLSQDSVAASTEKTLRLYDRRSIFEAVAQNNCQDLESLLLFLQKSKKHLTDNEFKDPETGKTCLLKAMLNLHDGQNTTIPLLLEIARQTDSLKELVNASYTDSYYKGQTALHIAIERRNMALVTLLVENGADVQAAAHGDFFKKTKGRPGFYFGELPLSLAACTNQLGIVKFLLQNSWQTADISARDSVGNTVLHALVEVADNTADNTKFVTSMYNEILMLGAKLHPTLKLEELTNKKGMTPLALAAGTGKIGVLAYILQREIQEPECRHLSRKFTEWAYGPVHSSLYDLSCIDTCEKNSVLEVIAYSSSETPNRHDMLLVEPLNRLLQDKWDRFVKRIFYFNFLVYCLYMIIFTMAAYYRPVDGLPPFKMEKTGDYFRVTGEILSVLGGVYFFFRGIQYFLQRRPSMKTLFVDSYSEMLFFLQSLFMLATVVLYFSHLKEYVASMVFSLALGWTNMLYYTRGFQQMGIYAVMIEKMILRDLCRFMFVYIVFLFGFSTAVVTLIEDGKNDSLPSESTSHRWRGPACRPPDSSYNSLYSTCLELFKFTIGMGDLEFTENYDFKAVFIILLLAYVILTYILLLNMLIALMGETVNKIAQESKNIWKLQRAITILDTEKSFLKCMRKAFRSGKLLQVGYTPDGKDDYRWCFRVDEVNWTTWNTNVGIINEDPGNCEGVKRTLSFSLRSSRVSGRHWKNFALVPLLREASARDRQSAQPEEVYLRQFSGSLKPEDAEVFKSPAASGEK

## 1-(1-methyl-2-oxo-1,2,3,4-tetrahydroquinazolin-5-yl)-3-[(4R)-8-(trifluoromethoxy)-3,4-dihydro-2H-chromen-4-yl]urea [Example 138]
[1]
  IC50: 38 nM
[2]
  human TRPV1 H^+ (max % remain): 19%

## 1-[(2R,4R)-7-chloro-2-(difluoromethyl)-2-methyl-3,4-dihydro-2H-chromen-4-yl]-3-(2-oxo-1,2,3,4-tetrahydroquinolin-7-yl)urea [Example 30]
[1]
  IC50: 4 nM
[2]
  human TRPV1 H^+ (max % remain): 31%

## 1-[(2S,4R)-2-(fluoromethyl)-2-methyl-7-(trifluoromethyl)-3,4-dihydro-2H-chromen-4-yl]-3-(1-methyl-2-oxo-1,2-dihydroquinolin-5-yl)urea [Example 84]
[1]
  IC50: 23 nM
[2]
  human TRPV1 H^+ (max % remain): 40%

## 1-[(4R)-7-chloro-2,2-diethyl-3,4-dihydro-2H-chromen-4-yl]-3-(1-methyl-2-oxo-1,2,3,4-tetrahydroquinazolin-5-yl)urea [Example 145]
[1]
  IC50: 160 nM
[2]
  human TRPV1 H^+ (max % remain): 7%

## CN1C(=O)NCc2c(NC(=O)N[C@@H]3CC(C)(C)Oc4cc(F)ccc43)cccc21 [Example 1, 1-[(4R)-7-fluoro-2,2-dimethyl-3,4-dihydro-2H-chromen-4-yl]-3-(1-methyl-2-oxo-1,2,3,4-tetrahydroquinazolin-5-yl)urea]
[1]
  IC50: 10 nM
[2]
  human TRPV1 H^+ (max % remain): 25%

## CN1C(=O)NCc2c(NC(=O)N[C@@H]3CC(CF)(CF)Oc4c3ccc(Cl)c4F)cccc21 [Example 3, 1-[(4R)-7-chloro-8-fluoro-2,2-bis(fluoromethyl)-3,4-dihydro-2H-chromen-4-yl]-3-(1-methyl-2-oxo-1,2,3,4-tetrahydroquinazolin-5-yl)urea]
[2]
  human TRPV1 H^+ (max % remain): 19%

## CN1C(=O)NCc2c(NC(=O)N[C@@H]3CC(C)(C)Oc4ccccc43)cccc21 [Example 4, 1-[(4R)-2,2-dimethyl-3,4-dihydro-2H-chromen-4-yl]-3-(1-methyl-2-oxo-1,2,3,4-tetrahydroquinazolin-5-yl)urea]
[2]
  human TRPV1 H^+ (max % remain): 35%

## CN1C(=O)NCc2c(NC(=O)N[C@@H]3CC(C)(C)Oc4c3ccc(F)c4Cl)cccc21 [Example 5, 1-[(4R)-8-chloro-7-fluoro-2,2-dimethyl-3,4-dihydro-2H-chromen-4-yl]-3-(1-methyl-2-oxo-1,2,3,4-tetrahydroquinazolin-5-yl)urea]
[1]
  IC50: 17 nM
[2]
  human TRPV1 H^+ (max % remain): 24%

## CN1C(=O)NCc2c(NC(=O)N[C@@H]3CC(C)(C)Oc4cc(Cl)ccc43)cccc21 [Example 6, 1-[(4R)-7-chloro-2,2-dimethyl-3,4-dihydro-2H-chromen-4-yl]-3-(1-methyl-2-oxo-1,2,3,4-tetrahydroquinazolin-5-yl)urea]
[2]
  human TRPV1 H^+ (max % remain): 30%

## CN1C(=O)NCc2c(NC(=O)N[C@@H]3C[C@](C)(CF)Oc4cc(Cl)ccc43)cccc21 [Example 7, 1-[(2R,4R)-7-chloro-2-(fluoromethyl)-2-methyl-3,4-dihydro-2H-chromen-4-yl]-3-(1-methyl-2-oxo-1,2,3,4-tetrahydroquinazolin-5-yl)urea]
[1]
  IC50: 51 nM
[2]
  human TRPV1 H^+ (max % remain): 27%

## CCN1C(=O)NCc2c(NC(=O)N[C@@H]3CC(C)(C)Oc4ccccc43)cccc21 [Example 8, 1-[(4R)-2,2-dimethyl-3,4-dihydro-2H-chromen-4-yl]-3-(I-ethyl-2-oxo-1,2,3,4-tetrahydroquinazolin-5-yl)urea]
[1]
  IC50: 94 nM
[2]
  human TRPV1 H^+ (max % remain): 1%

## CN1C(=O)NCc2c(NC(=O)N[C@@H]3CC(CF)(CF)Oc4ccccc43)cccc21 [Example 9, 1-[(4R)-2,2-bis(fluoromethyl)-3,4-dihydro-2H-chromen-4-yl]-3-(1-methyl-2-oxo-1,2,3,4-tetrahydroquinazolin-5-yl)urea]
[1]
  IC50: 300 nM
[2]
  human TRPV1 H^+ (max % remain): 30%

## CN1C(=O)NCc2c(NC(=O)N[C@@H]3C[C@](C)(C(F)F)Oc4cc(Cl)ccc43)cccc21 [Example 10, 1-[(2R,4R)-7-chloro-2-(difluoromethyl)-2-methyl-3,4-dihydro-2H-chromen-4-yl]-3-(1-methyl-2-oxo-1,2,3,4-tetrahydroquinazolin-5-yl)urea]
[1]
  IC50: 17 nM
[2]
  human TRPV1 H^+ (max % remain): 19%

## CN1C(=O)NCc2c(NC(=O)N[C@@H]3C[C@@](C)(C(F)F)Oc4cc(Cl)ccc43)cccc21 [Example 11, 1-[(2S,4R)-7-chloro-2-(difluoromethyl)-2-methyl-3,4-dihydro-2H-chromen-4-yl]-3-(1-methyl-2-oxo-1,2,3,4-tetrahydroquinazolin-5-yl)urea]
[1]
  IC50: 21 nM
[2]
  human TRPV1 H^+ (max % remain): 32%

## CCC1(CC)C[C@@H](NC(=O)Nc2cccc3c2CNC(=O)N3C)c2ccc(F)cc2O1 [Example 143, 1-[(4R)-2,2-diethyl-7-fluoro-3,4-dihydro-2H-chromen-4-yl]-3-(1-methyl-2-oxo-1,2,3,4-tetrahydroquinazolin-5-yl)urea]
[2]
  human TRPV1 H^+ (max % remain): 19%

## CN1C(=O)NCc2c(NC(=O)N[C@@H]3CC(C)(C)c4ccccc43)cccc21 [Example 158, 1-[(1R)-3,3-dimethyl-2,3-dihydro-1H-inden-1-yl]-3-(1-methyl-2-oxo-1,2,3,4-tetrahydroquinazolin-5-yl)urea]
[2]
  human TRPV1 H^+ (max % remain): 35%

## CN1Cc2ccc(NC(=O)N[C@@H]3CC(C)(C)Oc4c(F)cccc43)cc2NC1=O [Example 210, 1-[(4R)-8-fluoro-2,2-dimethyl-3,4-dihydro-2H-chromen-4-yl]-3-(3-methyl-2-oxo-1,2,3,4-tetrahydroquinazolin-7-yl)urea]
[2]
  human TRPV1 H^+ (max % remain): 60%

## CN1C(=O)CCc2ccc(NC(=O)N[C@@H]3CCOc4c3cccc4C(F)(F)F)cc21 [Example 284, 1-(1-methyl-2-oxo-1,2,3,4-tetrahydroquinolin-7-yl)-3-[(4R)-8-(trifluoromethyl)-3,4-dihydro-2H-chromen-4-yl]urea]
[2]
  human TRPV1 H^+ (max % remain): 79%
